Measured values: US12042545B2, “Encapsulated extracellular vesicles” (THE BOARD OF TRUSTEES OF THE UNIVERSITY OF ILLINOIS, priority 2020, dated 2024)
Like-named read-outs stand apart in the source and are kept apart here. Ends that are not written are not given here.

Experiment: Bulk transport experiments: release from alginate hydrogels
[1] = EVs encapsulated in alginate hydrogels, agent added or tethered

| Compound | effect of treatment on EV release from hydrogels [1] | other results |
| --- | --- | --- |
| GsMTx4: a selective inhibition of cation-permeable mechanosensitive channels (GCLEFWWKCNPNDDKCCRPKLKCSKLFKLCNFSF; ends and bridges not checked; cysteine pairing not given here; UniProt Q7YT39 47-80, looked up) | increased EV release in stiff stress relaxing hydrogels | – |
| C[C@@H](N)[C@H]1CC[C@H](C(=O)Nc2ccncc2)CC1 [Y27632] | did not affect the EV release | – |
| OC[C@H]1O[C@H](O[C@H]2O[C@H](CO)[C@@H](O)[C@H](O)[C@H]2O)[C@H](O)[C@@H](O)[C@@H]1O [trehalose] | – | release behavior of lyophilized EVs with cryoprotectant (added to EV preparations during lyophilization): recovered release behavior |
| Cc1ccc2c(c1)C(=O)C1(O)CCN(c3ccccc3)C1=N2 (stereo not drawn) [blebbistatin] | did not affect the EV release | – |
| NC1=N[C@H](O)[C@H]2[C@H]3O[C@]4(O)O[C@@H]([C@@H](O)[C@@]2(N1)[C@@H]4O)[C@]3(O)CO [tetrodotoxin] | – | effect of treatment on EV release from hydrogels: significantly increased EV release in soft and stiff stress relaxing hydrogels |
| O=C(O)CN(CCOCCOCCN(CC(=O)O)CC(=O)O)CC(=O)O [EGTA] | did not affect the release | – |
| CCN(c1nc(N)c(C(=O)NC(=N)N)nc1Cl)C(C)C [EIPA] | did not alter EV release from the hydrogels | – |
| C[C@H](CCC(=O)O)C[C@H](C)C[C@H](C)C(=O)/C=C(\O)[C@H](C)C[C@H](C)C/C=C/[C@@H](C)[C@@H](O)[C@@H](C)[C@@H](O)C[C@@H]1CC[C@@](C)([C@H]2CC[C@@](C)([C@@H](C)O)O2)O1 [ionomycin] | did not affect the release | – |
| O=C(O)c1cc([N+](=O)[O-])ccc1NCCCc1ccccc1 [NPPB] | did not alter EV release from the hydrogels | – |
